The values that follow come from patent US20070286823A1, “COMPOSITIONS HAVING ANTI-DENTAL CARIES FUNCTION” (Ezaki Glico Co., Ltd., priority 2001, published 2007).

The test system of one assay is S. mutans strain 8148. Kind of assay: effect on fermentation of sucrose (pH of bacterial cell suspension). Type of assay: cell-based. Conditions: 0.684% sugar added to 20% bacterial cell suspension; after 10 minutes. How it is done:
S. mutans strain 8148 was incubated in 1,000 ml of brain heart infusion medium (manufactured by DIFCO Corporation) at 37° C. for 14 hours. Thereafter, the bacteria were collected by centrifugation at 6,000 rpm for 20 minutes. The bacteria was washed with phosphate buffered saline (PBS, pH 7.2), and suspended in the same PBS to 40% (v/v). To measure the pH, a reaction mixture (250 μl) was made of 125 μl of 40% bacterial cell suspension, 62.5 μl of 80 mM sucrose, and 62.5 μl of an aqueous solution containing various oligosaccharides (5% phosphorylated oligosaccharide sodium salt and phosphorylated oligosaccharide calcium salt). The pH of the reaction mixture was continuously measured with a pH meter (manufactured by Toa Denpa) while being incubated at 37° C.

Assay [1] is described as follows: simple remineralization test system (hydroxyapatite, soluble calcium by OCPC method). Conditions: for remineralization effect (FIG. 12): final concentration of 0.1%. From the text:
These conditions for easy remineralization are simplified as follows: in a system including hydroxyapatite, calcium and phosphorus are supplied for crystallization and soluble calcium is reduced; and in a system including no hydroxyapatite, phosphorus and calcium are not deposited and the high solubility thereof is maintained. Therefore, the magnitudes of the solubility of calcium in the two systems were compared to examine the remineralization effect. These simple test systems will be described below. […] For this method, there are the following constraints: a long time required for evaluation; a high-level experimental technique required; etc. Therefore, there is a demand for a simple evaluation system capable of quickly capturing changes in dentin mineral concentrations. Remineralization in an early dental caries lesion in the enamel of teeth is considered to develop via the following two processes:
This method comprises the steps of: (A) precipitating calcium in a solution containing phosphorus, calcium, and tooth components in the presence of the sample; (B) measuring a calcium concentration in the solution or the amount of the precipitated calcium after the precipitation; (C) precipitating calcium in the solution in the absence of the sample; (D) measuring a calcium concentration in the solution or the amount of the precipitated calcium after the precipitation; and (E) comparing calcium concentrations or the amounts of the precipitated calcium in steps (B) and (D). In a preferred embodiment, the above-described solution may contain hydroxyapatite, a buffer, KH2PO4 and CaCl2. The “tooth component” to be contained in the above-described solution is any material that precipitates phosphorus and calcium to produce hydroxyapatite due to remineralization. Use of hydroxyapatite is preferable. Alternatively, teeth of mammals such as a bovine, and sections or fractions thereof may be used. When the solution for calcium precipitation is prepared, the sequence of addition of the above-described phosphorus, calcium, and the other tooth components is not limited. Preferably, first the sample, then, phosphorus, calcium chloride solution, and the tooth component suspension or deionized water are added in this order to prepare the solution. The pH of the solution is preferably adjusted after the addition of KH2PO4. Calcium precipitation typically occurs by incubation at room temperature for ten and several hours to several days (preferably 10 hours to 7 days, more preferably 18 hours to 42 hours). The calcium solubility of the solution can be measured by any procedure known to those skilled in the art. The calcium solubility of the solution may be measured by OCPC method (using calcium C test Wako manufactured by Wako Pure Chemicals). Alternatively, the amount of precipitated calcium in the solution can be measured. The amount of precipitated calcium in the solution may be measured by any procedure known to those skilled in the art. The calcium solubility of the solution may be measured by any procedure known to those skilled in the art. Examples of such a method include the ICP method (Inductive Coupled Plasma method), atomic absorption analysis and an ion electrode method.
In order to examine the remineralization phenomenon in a more simple manner, conditions under which remineralization occurs more easily were simplified. In a system including hydroxyapatite, calcium and phosphorus are supplied for crystallization and soluble calcium is reduced. In contrast, in a system including no hydroxyapatite, calcium and phosphorus are not precipitated so that the solubility thereof is held at a high level. Based on these facts, the following test system was designed.

Test in assay [2]: as above
Conditions: 37° C., 8 days.

For assay [3] the following is noted: prior art; cited from earlier work.
Assay [4] is described as follows: remineralization test system using bovine tooth pieces (Example 3). How it is done:
The remineralization effect of a buffering agent may be examined by a known method, such as a remineralization test system using bovine tooth sections which is described in Inaba. D et al., Eur. J. Sci. 105:74-80, 1997; Inaba. D et al., J. Dent. Health. 47:67-74, 1997; and Iijima. Y et al., Dental Caries Research. 33:206-213, 1999.
This experiment was conducted basically in accordance with Inaba. D et al., Eur. J. Sci. 105:74-80, 1997; Inaba. D et al., J. Dent. Helth. 47:67-74, 1997; and Iijima. Y et al., Caries Research. 33:206-213, 1999.
Tooth pieces used in the experiment were prepared as follows: cubic bovine tooth pieces 3 mm per side were placed so that the enamel surfaces thereof are up. The pieces were covered with composite resin except for the enamel surfaces. The enamel was treated with wet abrasives and paper. Demineralization was conducted as follows: the tooth pieces were immersed in 1% lactate gel (pH 5.0) containing 6% carboxymethylcellulose gel at 37° C. for 3 weeks. Remineralization was conducted as follows: the tooth pieces subjected to demineralization were immersed in 20 mM 2-[4-(2-hydroxyethyl)]-1-piperidinylethane sulfonate (HEPES) buffer (pH 7.0) containing 1.5 mM CaCl2 and 0.9 mM KH2PO4 at 37° C. for one week.
After each treatment, a 200 μm-thick section was prepared from each treated tooth piece, and the mineral concentration distribution thereof was analyzed from the microradiographic images (not shown). […]
After each treatment, the calcium and phosphorus concentrations of the post-remineralization solution were also analyzed. The solution was centrifuged at 10,000 g for two minutes, and the supernatant was analyzed. The phosphorus concentration was determined by molybdic acid method (“Shin-ban Bunseki Kagaku Jikken [New Edition Analyical Chemistry Experiment] (1st ed.), pp. 313-314, published by Kagaku Dojin K. K.), and the calcium concentration was determined by OCPC method (manufactured by Wako Pure Chemicals: measured by a “calcium C test Wako” kit).

Setting [5] is: remineralization solution + 2 ppm F, supernatant.

As to `OC[C@H]1O[C@@](CO)(O[C@H]2O[C@H](CO)[C@@H](O)[C@H](O)[C@H]2O)[C@@H](O)[C@@H]1O` [sucrose], the “pH of the reaction liquid” value in the assay with S. mutans strain 8148 is on record as 4.0.
Turning to `OC[C@H]1O[C@H](OC[C@H]2OC(O)(CO)[C@@H](O)[C@@H]2O)[C@H](O)[C@@H](O)[C@@H]1O` (stereo partly drawn) [palatinose, 6-O-α-D-Glucopyranosyl-D-Fructofuranose], the “remineralization effect (FIG. 13)” value in assay [1] (20% addition group) is given as “the remineralization effect as previously reported (as above) was confirmed”. Also, in assay [2], the “sample concentration exhibiting a remineralization effect (FIGS. 7A to 7C)” value is 20%.
As for `O=C[C@H](O)[C@@H](O)[C@H](O)CO` [xylose], the “remineralization percentage (FIG. 7B)” value in assay [1] (37° C., 8 days) is on record as “low at any concentration”.
As for `O=C[C@H](O)[C@@H](O)[C@H](O)[C@H](O)COP(=O)(O)O` [glucose-6-phosphate], the “remineralization effect (FIG. 12)” value in assay [1] is “as good as or better than that of the phosphorylated oligosaccharide sodium salt”.
For `OC[C@@H](O)[C@H](O)[C@@H](O)CO` [xylitol], the “remineralization effect (FIG. 13)” value in assay [1] (20% addition group) was “the remineralization effect as previously reported (as above) was confirmed”. Also, the “effect of xylitol (remineralization)” value in assay [1] (statement in the background referring to the Examples) is on record as “not substantially confirmed”. Also, in assay [2], the “sample concentration exhibiting a remineralization effect (FIGS. 7A to 7C)” value worked out at 20%.
For the compound palatinit, the “sample concentration exhibiting a remineralization effect (FIGS. 7A to 7C)” value in assay [2] stood at 20%.
For `OC[C@@H](O)[C@@H](O)[C@H](O)[C@@H](O)CO` [sorbitol], the “remineralization effect (FIG. 13)” value in assay [1] (20% addition group) is given as “the remineralization effect as previously reported (as above) was confirmed”.
In the case of “chondroitin sulfate C [chondroitin sulfate C sodium salt]”, the “remineralization effect (FIG. 12)” value in assay [1] is reported as “as good as or better than that of the phosphorylated oligosaccharide sodium salt”.
dermatan sulfate: the “remineralization effect (FIG. 13)” value in assay [1] (final concentration of 0.2%) is on record as “confirmed to have the remineralization effect”.
Turning to `F` [F, fluorine], in assay [3], the “concentration at which sufficient efficacy is exerted (remineralization)” value was “about 2 ppm”. Moreover, the “lesion depth (FIG. 2)” value in assay [4] (demineralized bovine tooth pieces, remineralization solution + sample, 37° C., one week) is recorded as “the lesion depth was unchanged”. Besides, in assay [4] (setting [5]), the “Ca (mM) of the post-remineralization solution” value was 0.73 mM and the “Pi (mM) of the post-remineralization solution” value is recorded as 0.41 mM.
